Test results reported in patent publication US20240407993A1, “PEPTIDE HAVING ANTI-AGING ACTIVITY, AND USE THEREOF” (CAREGEN CO., LTD., priority 2021, published 2024).

What was measured:
Elastin = Elastin gene expression by RT-PCR in fibroblasts; type: cell-based, mouse; settings: NIH3T3 cells, peptide 1, 10, 50 μM, 24 hours; FIGS. 1A, 1D
Protocol: First, NIH3T3 cells (mouse fibroblast cell line) were seeded in a 6-well plate at a cell density of 3×10^5 cell/well, and then the cells were cultured in DMEM medium containing 10% fetal bovine serum (FBS) for 24 hours. The cultured cells were washed once with serum free DMEM medium, and the peptide of the present invention was mixed in 1 mL of the serum free DMEM medium at each of concentrations of 1, 10, and 50 μM, and dispensed into the cells. A positive control (PC) was treated with 5 ng/ml of TGF-β1 instead of the above peptide. The cells were cultured in a CO2 incubator at 37° C. for 24 hours.
The cultured cells were washed twice with PBS, and RNA was extracted from the cells using easy blue (iNtRON, Cat. No.: 17061, Korea). The amount of RNA extracted was quantified, 1,000 ng of RNA was added per tube, and RT reaction was performed using a kit (enzynomics, Cat. No.: PT200, Korea). RT-PCR was performed using a PCR kit (enzynomics, Cat. No.: […], Korea). The sequences of the primers of collagen, fibronectin, and elastin used in RT-PCR and the sequence of the primer of GAPDH used to compare the total RNA amount of each treatment group are shown in [Table 2].

hyaluronic acid = experiment: Hyaluronic acid secretion (HA ELISA) in keratinocytes; type: cell-based, human; settings: HaCaT cells, peptide 1, 10, 50 μM, 24 hours; FIG. 2
Protocol: First, HaCaT cells (human keratinocyte cell line) were seeded in a 48-well plate at a cell density of 1×10^5 cell/well, and then the cells were cultured in DMEM medium containing 10% fetal bovine serum (FBS) for 24 hours. The cultured cells were washed once with serum free DMEM medium, and the peptide of the present invention was mixed in 2 mL of the serum free DMEM medium at each of concentrations of 1, 10, and 50 μM, and dispensed into three wells by 500 μL per condition. A positive control (PC) was treated with 100 nM of EGF instead of the above peptide. The cells were cultured in a CO2 incubator at 37° C. for 24 hours.
The medium of the cultured HaCaT cells was centrifuged to settle a suspended matter, and a supernatant was transferred to an e-tube and used to perform HA ELISA (ECHELON biosciences, Cat No.: K-1200, USA).

HaCaT cells = experiment: Intracellular ROS level after UVB irradiation (DCFH-DA, FACS) in keratinocytes; type: cell-based, human; settings: 15 mJ/cm^2 UVB, peptide 1, 10, 50 μM, 24 hours after irradiation, FIG. 4B
Protocol: The reactive oxygen species level increases when UV is irradiated. Therefore, it was confirmed whether the reactive oxygen species level decreased again and the aging phenomenon caused by oxidative stress in cells was inhibited when treated with the peptide of the present invention.
First, NIH3T3 cells and HaCaT cells were seeded in a 6-well plate at a cell density of 5×10^5 cell/well, respectively, and then the cells were cultured in DMEM medium containing 10% fetal bovine serum (FBS) for 24 hours. The cultured cells were washed once with serum free DMEM medium, and then the peptide of the present invention was mixed in 1 mL of the serum free DMEM medium at each of concentrations of 1, 10, and 50 μM, and dispensed into the cells. A positive control (PC) was treated with 2.5 mM of N-Acetylcysteine (NaC) instead of the above peptide.
The cells were cultured in a CO2 incubator at 37° C. for 1 hour. The medium of the cultured cells was transferred to a tube, 1 ml of PBS was added, and then the NIH3T3 cells were irradiated with 8 J/cm^2 of UVA and the HaCaT cells were irradiated with 15 mJ/cm^2 of UVB using a UV irradiator (VILBER LOURMAT, Cat No.: 3102-BSU, France). […] After centrifugation, the cells were washed with PBS, and a fluorescence value was measured through FACS.

Sequence: LCACCLHNCNECQ
- expression of the elastin gene (Elastin): gradually increased as a concentration of the peptide increased
- secretion of hyaluronic acid protein (hyaluronic acid): gradually increased as the concentration of the peptide increased
- intracellular reactive oxygen species level increased by UV irradiation (HaCaT cells): decreased
